Test results from ChEMBL document CHEMBL1124019, “Synthesis and anticholinesterase activity of (-)-N1-norphysostigmine, (-)-eseramine, and other N(1)-substituted analogues of (-)-physostigmine” (J Med Chem, 1988).

Target: Acetylcholinesterase (Electrophorus electricus, UniProt O42275)
Sequence (O42275 whole entry): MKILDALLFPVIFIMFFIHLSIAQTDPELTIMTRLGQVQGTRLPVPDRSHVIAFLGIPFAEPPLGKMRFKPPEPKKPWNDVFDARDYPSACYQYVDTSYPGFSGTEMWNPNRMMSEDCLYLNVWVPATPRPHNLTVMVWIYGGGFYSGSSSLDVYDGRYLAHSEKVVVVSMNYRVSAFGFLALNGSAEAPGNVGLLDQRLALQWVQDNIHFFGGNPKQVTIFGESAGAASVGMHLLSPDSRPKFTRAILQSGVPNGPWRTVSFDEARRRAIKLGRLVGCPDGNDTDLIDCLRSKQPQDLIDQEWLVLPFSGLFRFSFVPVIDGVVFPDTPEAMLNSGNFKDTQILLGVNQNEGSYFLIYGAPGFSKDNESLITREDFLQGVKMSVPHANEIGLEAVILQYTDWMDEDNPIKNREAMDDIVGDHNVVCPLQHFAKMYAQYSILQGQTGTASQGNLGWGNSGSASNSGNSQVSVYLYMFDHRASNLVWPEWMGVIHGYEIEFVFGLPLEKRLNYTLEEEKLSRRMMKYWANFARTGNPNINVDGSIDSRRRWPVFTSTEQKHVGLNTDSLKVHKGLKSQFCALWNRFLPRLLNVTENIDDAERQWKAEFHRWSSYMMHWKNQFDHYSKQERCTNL
Description: In vitro inhibitory activity against acetylcholinesterase from electric eel

Row | Compound | IC50
1 | CNC(=O)Oc1ccc2c(c1)[C@]1(C)CCN(C(=O)NC)C1N2C (some centres not stated) | 9.3 µM
2 | CN(C)C(=O)Oc1cccc([N+](C)(C)C)c1 [NEOSTIGMINE BROMIDE] | 0.087 µM
